How the values were obtained:
M^pro = conditions: at 100 μM; cited from earlier work
[1] = after 2 h

## C=C(CC)C(=O)c1ccc(OCC(=O)O)c(Cl)c1Cl [EA, ethacrynic acid]
M^pro
  inhibition of M^pro: approximately 20%

## CCCCCCNC(=O)n1cc(F)c(=O)[nH]c1=O [Carmofur]
[1]
  starting material consumed by cysteine: 75%
